Reference: patent publication US8513227B2, “Inhibition of inflammatory cytokine production with tanshinones” (The Feinstein Institute for Medical Research, priority 2006, dated 2013)

Key:
HMGB1 [1] = assay: LPS-induced HMGB1 release in murine peritoneal macrophages; assay type: cell-based; details: data not shown
Description: (§1) Cell culture. Murine macrophage-like RAW 264.7 cells were obtained from the American Type Culture Collection (ATCC, Rockville, Md.), and primary peritoneal macrophages were isolated from Balb/C mice (male, 7-8 weeks, 20-25 grams) at 2-3 days after intraperitoneal injection of 2 ml thioglycollate broth (4%) as previously described (Chen et al. 2004; Rendon-Mitchell et al. 2003). Murine macrophages were pre-cultured in RPMI 1640 medium (Gibco BRL, Grand Island, N.Y.) supplemented with 10% fetal bovine serum (FBS) and 2 mmol/L glutamine. […]
(§2) LPS stimulation. […] At 16 hours after LPS stimulation, levels of HMGB1 in the culture medium were determined as previously described (Chen et al. 2004; Rendon-Mitchell et al. 2003; Wang et al. 1999).
(§3) HMGB1 western blotting analysis. The levels of HMGB1 in the culture medium or serum were determined by western blotting analysis as previously described (Chen et al. 2004; Rendon-Mitchell et al. 2003; Wang et al. 1999). The relative band intensity was quantified using NIH image 1.59 software to determine HMGB1 levels with reference to standard curves generated with purified HMGB1.

HMGB1 [2] = assay: HMGB1-induced release of TNF and nitric oxide in murine macrophage cultures; assay type: cell-based; details: concentrations up to 100 μM, preliminary data
lethal endotoxemia = assay: Lethal endotoxemia in Balb/C mice (LPS 15 mg/kg i.p.); assay type: in vivo
Description: (§4) Animal models of endotoxemia and sepsis. This study was approved and performed in accordance with the guidelines for the care and use of laboratory animals at the Feinstein Institute for Medical Research, Manhasset, N.Y. Endotoxemia was induced in Balb/C mice (male, 7-8 weeks) by intraperitoneal injection of bacterial endotoxin (LPS, 15 mg/kg) as previously described (Chen et al. 2005; Wang et al. 1999; Wang et al. 2006). Sepsis was induced in male Balb/C mice (7-8 weeks, 20-25 g) or Sprague-Dawley rats (290-310 g) by cecal ligation and puncture (CLP) as previously described (Wang et al. 2006; Yang et al. 2002b). Herbal components were administered intraperitoneally into mice at indicated doses and time points, and mice were monitored for survival for up to two weeks. In parallel experiments, mice were euthanized to collect blood at 28 h (following two doses of herbal components at −0.5 and +24 h) after endotoxemia, and at 52 h (following two doses of herbal components at +24 and +48 h) after CLP.
as §3

HMGB1 [3] = assay: LPS-induced HMGB1 release in RAW 264.7 macrophage cultures (western blot); assay type: cell-based, murine
Excerpt: Cell culture. […] Rendon-Mitchell et al. 2003). Murine macrophages were pre-cultured in RPMI 1640 medium (Gibco BRL, Grand Island, N.Y.) supplemented with 10% fetal bovine serum (FBS) and 2 mmol/L glutamine. Human peripheral blood mononuclear cells (HuPBMCs) were isolated from the blood of healthy donors (Long Island Blood Bank, Melville, N.Y.) by density gradient centrifugation through Ficoll (Ficoll-Paque PLUS, Pharmacia, Piscataway, N.J.), and cultured in RPMI 1640 supplemented with 10% heat-inactivated human serum/0.2 mM L-glutamine as previously described (Rendon-Mitchell et al. 2003). LPS stimulation. Adherent macrophages or monocytes were gently washed with, and cultured in, serum-free OPTI-MEM I medium two hours before stimulation with bacterial endotoxin (lipopolysaccharide, LPS, E. coli 0111:B4, Sigma-Aldrich). […] Rendon-Mitchell et al. 2003; Wang et al. 1999). HMGB1 western blotting analysis. The levels of HMGB1 in the culture medium or serum were determined by western blotting analysis as previously described (Chen et al. 2004; Rendon-Mitchell et al. 2003; Wang et al. 1999). The relative band intensity was quantified using NIH image 1.59 software to determine HMGB1 levels with reference to standard curves generated with purified HMGB1.

TNF = assay: LPS-induced TNF release in human peripheral blood mononuclear cells (ELISA); assay type: cell-based; details: 100 μM, FIG. 2B lower panel
Description: as §1, §2
TNF ELISA. The levels of TNF in the culture medium or serum were determined using commercial enzyme linked immunosorbent assay (ELISA) kits (Catalog no. MTA00, R & D Systems, Minneapolis, Minn.) with reference to standard curves of purified recombinant TNF at various dilutions as previously described (Chen et al. 2004; Rendon-Mitchell et al. 2003; Wang et al. 2006).

[4] = test system: sepsis-induced cardiovascular dysfunction; assay: Sepsis-induced cardiovascular dysfunction in CLP rats (radiolabeled microspheres); assay type: in vivo, Sprague-Dawley rats; details: 20 h after CLP
Description: as §4
Measurement of cardiac output. A radiolabeled microsphere technique was used to measure cardiac output at 20 h after CLP or sham operation as previously described (Yang et al. 2002b). Briefly, a bolus of ^141Ce-labeled microspheres (4.0 μCi, DuPont NEN, Boston, Mass.) was injected into the left ventricle, where it mixed uniformly with the oxygenated blood at the root of the aorta, and subsequently distributed via aortic blood flow to the capillary beds within each organ. The reference blood sample was withdrawn from the femoral arterial catheter (at a rate of 0.7 ml/min) with a pump (Harvard Apparatus, Holliston, Mass.), after which isotonic sodium chloride solution was infused manually to replace the volume of blood lost. At 20 h post CLP, animals were sacrificed to harvest various organs for measurement of radioactivity with an automatic gamma counter (1470 Wizard; Wallac, Gaithersburg, Md.). Cardiac output and organ blood flow were calculated according to the following equations: cardiac output=[(RBF×CT)/Cr]× 1/100 and organ blood flow=[(RBF×Ct)/Cr]× 1/100, where RBF is the reference blood sample withdrawal rate (0.7 ml/min), CT is counts per minute of total injected dose, Ct is counts per minute per gram of tissue, and Cr is counts per minute in the reference blood sample. Stroke volume (SV) and total peripheral resistance (TPR) were calculated as previously described (Yang et al. 2002b).

SMILES: Cc1c(S(=O)(=O)[O-])oc2c1C(=O)C(=O)c1c-2ccc2c1CCCC2(C)C.[Na+] [TSNIIA-SS, tanshinone IIA sodium sulfonate]
- effect on LPS-induced HMGB1 release (HMGB1 [1]): effectively inhibited
- attenuation of HMGB1-induced release of TNF (HMGB1 [2]): 50-60%
- attenuation of HMGB1-induced release of nitric oxide (HMGB1 [2]): 90-95%
- circulating HMGB1 levels, endotoxemia (lethal endotoxemia; LPS+vehicle 140±20 ng/ml, n=10, p<0.01): 40 ± 25 ng/mL
- animal survival, lethal endotoxemia (lethal endotoxemia; repeated doses (+0.5, +24, +48, 72 hr), dose-dependent, control 20%, FIG. 6A): 80%
- animal survival rate, lethal endotoxemia (lethal endotoxemia; single dose 15 mg/kg 30 minutes after LPS, saline control 25%, P>0.05): 37.5%
- effect on LPS-induced HMGB1 release (HMGB1 [3]; 100 μM): completely abrogated
- IC50 (HMGB1 [3]; RAW 264.7 cells, 16 h after LPS, western blot, estimated, read-out: estimated IC50 for LPS-induced HMGB1 release): < 5 µM
- inhibition of HMGB1 release on delayed addition (HMGB1 [3]; added 2 to 6 h after LPS, 25 or 50 μM, HMGB1 at 16 h): significant inhibition was retained
- effect on LPS-induced release of TNF (TNF): did not completely block
- heart rate ([4]; 15 mg/kg, CLP group 378.3±25.1, n=6, p<0.05): 334.1±25.8 beats/minutes
- total peripheral vascular resistance ([4]; FIG. 8A): dose-dependently reduced
- cardiac stroke volume ([4]; FIG. 8B): significantly increased
- cardiac output ([4]; FIG. 8C): significantly increased
- mean arterial blood pressure ([4]; CLP group 106.1±4.7, n=6, p>0.05): 96.4±8.7 mm Hg
